Experiment: not given
Settings: 0.01 N; cited from earlier work

Row | Compound | pH
1 | [Na+].[OH-] [NaOH, sodium hydroxide] | 12.0
2 | [K+].[OH-] [KOH, potassium hydroxide] | 12.0

Same assay, conditions: 1.0 N aqueous solutions; cited from earlier work

Row | Compound | pH
3 | [Na+].[OH-] [NaOH, sodium hydroxide] | 14.0
4 | [K+].[OH-] [KOH, potassium hydroxide] | 14.0

Experiment: not given
Settings: * from Huntsman Technical Bulletin "Amine applications and properties data applications"; cited from earlier work

Row | Compound | pKa
5 | NCCN [Ethylenediamine (EDA), Ethylenediamine] | 9.90*
6 | NCCNCCNCCN [Triethylenetetramine (TETA), Triethylenetetramine] | 9.80*

Same assay, conditions: according to McMurry, Organic Chemistry, p. 45, 1984; cited from earlier work

Row | Compound | pKa
7 | ethoxide CH3CH2O^- | 16

Same assay, conditions: from CRC Handbook of Chemistry and Physics, 83rd Edition; cited from earlier work

Row | Compound | pKa2 | pKa1 | pKa
8 | NCCCN [1,3-propanediamine] | 8.88 | – | –
9 | CC(N)CN (centres unmarked) [1,2-propanediamine] | 6.61 | 9.82 | –
10 | NCCN [Ethylenediamine (EDA), Ethylenediamine] | 6.82 | 9.92 | –
11 | COCCN [2-mthyloxyethylamine] | – | – | 9.40
12 | CC(N)(O)CN (centres unmarked) [1,2-diamino-2-propanol] | 7.93 | 9.69 | –
13 | NC1CCCCC1 [Cyclohexylamine] | – | – | 10.64
14 | NCCCCCN [1,5-pentanediamine] | 9.13 | 10.25 | –
15 | NCCCCN [1,4-Butanediamine] | – | – | 10.80
16 | NCCCCCCN [1,6-Hexanediamine] | 10.76 | 11.86 | –
17 | CC(C)(C)CN [2,2-dimethylpropylamine] | – | – | 10.15
18 | CN(C)CCN(C)C [N,N,N',N'-Tetramethyl1,2-ethanediamine] | 8.26 | 10.40 | –
19 | CNO [Methylhydroxylamine] | – | – | 12.50

Experiment: Water solubility / appearance and pH of solution on mixing, dilution and standing
Format: physicochemical
Settings: TEPA 2.0 g in water 94.0 g
From the text: In Example 1 (within the scope of the invention), when LAS acid was neutralized with a polyamine (i.e., TEPA), it formed PAAS. As PAAS began forming, the solution became hazy. Upon further addition of the LAS acid, the hazy solution became a dispersion. Upon standing for hours, the dispersion formed a layer of sediment at the bottom of the beaker. Even a very diluted formulation (such as below 0.1%) was hazy.
The solution was clear at the all time over the entire pH range, leading to the conclusion that Na-LAS was fully ionized or disassociated.
Sodium xylenesulfonate was added to an aqueous PAAS dispersion to attempt to solubilize PAAS by ion-exchange and/or hydrotrope mechanism.
Example 1 was repeated, except that fatty acid was used in place of LAS acid. […]
This example investigated the solubilization of PAAS in water, with the aid of a solubiliser. A dispersion of PAAS (with LAS and fatty acid as conjugated acid) was mixed with Na-LES solution (59.5% Na-LES, 10% propylene glycol, 6.5% ethanol, and balance of water). […]

Row | Compound | Observations
20 | NCCNCCNCCNCCN [TEPA, Tetraethylenepentamine] | Clear

Source: patent publication EP1664254B9, “LIQUID LAUNDRY DETERGENT WITH POLYANIONIC AMMONIUM SURFACTANT” (priority 2003, dated 2005)
